Assays:
A2058 cell line = assay: 96-hour MTS viable cell number assay, A2058 cell line (monotherapy and concurrent combination); assay type: cell-based; settings: Homo sapiens, 96-hour viable cell number endpoint by MTS, read-out: IC50 monotherapy (Geomean)
Text: The objective of this assay was to determine the in-vitro combination interaction when combining AZD6244 or 2-(2-fluoro-4-iodophenylamino)-N-(2-hydroxyethoxy)-1,5-dimethyl-6-oxo-1,6-dihydropyridine-3-carboxamide concurrently with Compound A or Rapamycin in the A2058, NCI-H727, Calu-6, NCI-H2291, NCI-H23, A549 and NCI-H460 cell lines using a 96-hour viable cell number endpoint (MTS).
The A2058 cell line was routinely cultured and assayed in DMEM (phenol red free)+10% Foetal Calf Serum (FCS)+1% glutamine. The A2058 cell line is wild type for HRAS, KRAS and NRAS and mutant for the BRAF V600E mutation.
MTS viable cell number assays were carried out to determine seeding densities required for 96 hours of exponential growth. Cells were seeded into 96-well plates at their pre-determined seeding density allowing for log phase growth. After 4-hours cells were dosed with monotherapy AZD6244, 2-(2-fluoro-4-iodophenylamino)-N-(2-hydroxyethoxy)-1,5-dimethyl-6-oxo-1,6-dihydropyridine-3-carboxamide, Compound A, or Rapamycin using the Hydra/ECHO 550 platform. Following incubation with compound for 96-hours viable cell number was determined using an MTS viable cell number (Promega™) endpoint.
Concurrent combination: Cells were seeded into 96-well plates at the above-determined seeding density allowing for log phase growth. After 4 hours cells were dosed concurrently with
Non-linear MEA (Median Effect Analysis): The combination interaction between 2 active agents, each with well defined IC50 monotherapy dose responses was assessed using equal inhibitory effect ratios of the two agents (IC60, IC50, IC40, IC30, IC20, IC10). A combination index (CI)<0.85 indicates a synergistic interaction, CI 0.85-1.2 additivity and a CI>1.2 antagonism.
That is a fixed dose of the partially active agent (in MTS assays) was applied across the full dose response of the active agent. Relative potency is defined as the ratio of the combination IC50 to the monotherapy IC50.

pERK 1/2(Thr202/Tyr204) = assay: pharmacodynamic effect of AZD6244 against pERK 1/2; assay type: cell-based
HCT-116 xenografts = assay: HCT-116 tumour xenograft growth in nude mice; assay type: in vivo
Experimental: (§1) LoVo cells were grown in DMEM (Gibco) 10% FCS 1% Glutamine medium and HCT116 cells were grown in McCoys 5A 10% FCS 1% Glutamine, A549a and CaLu-6 cells were grown in RPMI1640 10% FCS 1% Glutamine. […] cells were implanted into the flank of nude mice (LoVo no matrigel, HCT-116, Calu-6 and A549a plus 50% matrigel).
When mean tumour size reached approximately 0.2 cm^3, the mice were randomized into control and treatment groups. […]
Tumour volumes (measured by caliper), animal body weight and tumour condition were recorded twice weekly for the duration of the study. […] The tumour volume was calculated (taking length to be the longest diameter across the tumour and width to be the corresponding perpendicular diameter using the formula: (length×width)×√(length×width)×(π/6). Growth inhibition from the start of treatment was assessed by comparison of the differences in tumour volume between control and treated groups. Because the variance in mean tumour volume data increases proportionally with volume (and is therefore disproportionate between groups), data were log-transformed to remove any size dependency before statistical evaluation.
Statistical significance was evaluated using a one-tailed, two-sample t test. […]

LoVo xenografts = assay: LoVo tumour xenograft growth in nude mice; assay type: in vivo
Experimental: as §1
(§2) When mean tumour size reached approximately 0.2 cm^3, the mice were randomized into control and treatment groups. The treatment groups received either 25 or 50 mg/kg AZD6244 (vehicle: HPMC/Tween milled overnight), or 20 mg/kg Compound A (vehicle 10% DMSO, 90% propylene glycol) by oral gavage, Rapamycin was given 4 mg/kg once weekly (10% DMSO-10% Cremaphor-10% Ethanol-70% water for injection. When administered in combination, Compound A was given 2 hours after the oral dose of the other compound. The control group received vehicle (10% DMSO 90% propylene glycol) alone, once daily by oral gavage.
(§3) Tumour volumes (measured by caliper), animal body weight and tumour condition were recorded twice weekly for the duration of the study. Mice were sacrificed by CO2 euthanasia. The tumour volume was calculated (taking length to be the longest diameter across the tumour and width to be the corresponding perpendicular diameter using the formula: (length×width)×√(length×width)×(π/6). Growth inhibition from the start of treatment was assessed by comparison of the differences in tumour volume between control and treated groups. Because the variance in mean tumour volume data increases proportionally with volume (and is therefore disproportionate between groups), data were log-transformed to remove any size dependency before statistical evaluation.
Statistical significance was evaluated using a one-tailed, two-sample t test. To analyze the data from the combination study, the statistical tool SigmaStat has been used. A two-way ANOVA test was performed using the factors concentration of drug A and concentration of drug B. The data analyzed was Log (final tumour volume)-Log (initial tumour volume) calculated for each individual group at the end of the study. This tool is used to assess whether there is a main effect of drug A, a main effect of drug B plus a significant interaction between the two compounds A and B (eg. one compound influences the effect of the other compound) which may be interpreted as antagonism, additivity or synergism.

Calu-6 xenografts = assay: Calu-6 tumour xenograft growth in nude mice; assay type: in vivo
Experimental: as §1, §2, §3
(§4) Statistical significance was evaluated using a one-tailed, two-sample t test. To analyze the data from the combination study, the statistical tool SigmaStat has been used. A two-way ANOVA test was performed using the factors concentration of drug A and concentration of drug B. The data analyzed was Log (final tumour volume)-Log (initial tumour volume) calculated for each individual group at the end of the study. […]

A549a xenografts = assay: A549a tumour xenograft growth in nude mice; assay type: in vivo
Experimental: as §1, §2, §3, §4

A549 cell line = assay: 96-hour MTS viable cell number assay, A549 cell line (monotherapy and combination); settings: for IC50: Homo sapiens, A549, 96 h, read-out: IC50 monotherapy (Geomean)
Experimental: (§5) The NCI-H727, Calu-6, NCI-H2291, NCI-H23, A549 and NCI-H460 cell lines were routinely cultured and assayed in RPMI (phenol red free)+10% Foetal Calf Serum (FCS)+1% glutamine.
(§6) MTS viable cell number assays were carried out to determine seeding densities required for 96 hours of exponential growth. Cells were seeded into 96-well plates at their pre-determined seeding density allowing for log phase growth. […] Following incubation with compound for 96-hours viable cell number was determined using an MTS viable cell number (Promega™) endpoint.

Calu-6 cell line = assay: 96-hour MTS viable cell number assay, Calu-6 cell line (monotherapy and combination); settings: Homo sapiens, Calu-6, 96 h, read-out: IC50 monotherapy (Geomean)
Experimental: as §5, §6

NCI-H23 cell line = assay: 96-hour MTS viable cell number assay, NCI-H23 cell line (monotherapy and combination); settings: for IC50: Homo sapiens, NCI-H23, 96 h, read-out: IC50 monotherapy (Geomean)
Experimental: as §5, §6

NCI-H727 cell line = assay: 96-hour MTS viable cell number assay, NCI-H727 cell line (monotherapy and combination); settings: Homo sapiens, NCI-H727, 96 h, read-out: IC50 monotherapy (Geomean)
Experimental: as §5, §6

NCI-H460 cell line = assay: 96-hour MTS viable cell number assay, NCI-H460 cell line (monotherapy and combination); settings: for IC50: Homo sapiens, NCI-H460, 96 h, read-out: IC50 monotherapy (Geomean)
Experimental: as §5, §6

NCI-H2291 cell line = assay: 96-hour MTS viable cell number assay, NCI-H2291 cell line (monotherapy and combination); settings: for IC50: Homo sapiens, NCI-H2291, 96 h, read-out: IC50 monotherapy (Geomean)
Experimental: as §5, §6

[1] = 20 mg/kg Compound A, oral gavage

IC50 (A549 cell line)	IC50 (Calu-6 cell line)	IC50 (NCI-H23 cell line)	IC50 (NCI-H727 cell line)	IC50 (NCI-H460 cell line)	IC50 (NCI-H2291 cell line)	Structure (SMILES)	IC50 (A2058 cell line)	further results
–	–	–	–	–	–	Cc1cc(C(=O)NOCCO)c(Nc2ccc(I)cc2F)n(C)c1=O [2-(2-fluoro-4-iodophenylamino)-N-(2-hydroxyethoxy)-1,5-dimethyl-6-oxo-1,6-dihydropyridine-3-carboxamide]	25 nM	–
12400 nM	257 nM	1840 nM	36 nM	32400 nM	704 nM	Cn1cnc2c(F)c(Nc3ccc(Br)cc3Cl)c(C(=O)NOCCO)cc21 [AZD6244]	526 nM	ED90, pharmacodynamic effect against pERK 1/2(Thr202/Tyr204) (pERK 1/2(Thr202/Tyr204)): 333 nM; ED95, pharmacodynamic effect against pERK 1/2(Thr202/Tyr204) (pERK 1/2(Thr202/Tyr204)): 1000 nM; EC50 (pERK 1/2(Thr202/Tyr204); read-out: ED50, pharmacodynamic effect against pERK 1/2(Thr202/Tyr204)): 20 nM; reduction in geometric mean delta tumour volume compared with the vehicle control (HCT-116 xenografts; 25 mg/kg AZD6244, oral gavage): 59%; reduction in geometric mean delta tumour volume compared with the vehicle treated control (LoVo xenografts; 25 mg/kg twice daily AZD6244): 38.7%; reduction in geometric mean delta tumour volume compared with the vehicle control (LoVo xenografts; 50 mg/kg AZD6244, oral gavage): 43%; reduction in geometric mean delta tumour volume compared with the vehicle treated control (Calu-6 xenografts; 50 mg/kg once daily AZD6244): 93.2%; reduction in geometric mean delta tumour volume compared with the vehicle treated control (A549a xenografts; 25 mg/kg once daily AZD6244): 53.4%
37 nM	50 nM	30 nM	68 nM	26 nM	23 nM	COc1ccc(-c2ccc3c(N4CCOC[C@@H]4C)nc(N4CCOC[C@@H]4C)nc3n2)cc1CO [Compound A, [5-[2,4-bis[(3S)-3-methylmorpholin-4-yl]pyrido[5,6-e]pyrimidin-7-yl]-2-methoxyphenyl]methanol]	46 nM	reduction in geometric mean delta tumour volume compared with the vehicle control (HCT-116 xenografts; [1]): 24%; reduction in geometric mean delta tumour volume compared with the vehicle control (LoVo xenografts; [1]): 66%; reduction in geometric mean delta tumour volume compared with the vehicle treated control (Calu-6 xenografts; 20 mg/kg once daily Compound A): 44.9%; reduction in geometric mean delta tumour volume compared with the vehicle treated control (A549a xenografts; 20 mg/kg once daily Compound A): 94.1%
> 10000 nM	> 10000 nM	> 10000 nM	> 10000 nM	> 10000 nM	> 10000 nM	CO[C@H]1C[C@@H]2CC[C@@H](C)[C@@](O)(O2)C(=O)C(=O)N2CCCC[C@H]2C(=O)O[C@H]([C@H](C)C[C@@H]2CC[C@@H](O)[C@H](OC)C2)CC(=O)[C@H](C)/C=C(\C)[C@@H](O)[C@@H](OC)C(=O)[C@H](C)C[C@H](C)/C=C/C=C/C=C/1C [Rapamycin]	> 10000 nM	reduction in geometric mean delta tumour volume compared with the vehicle treated control (LoVo xenografts; 4 mg/kg Rapamycin): 38.2%; reduction in geometric mean delta tumour volume compared with the vehicle treated control (Calu-6 xenografts; 4 mg/kg once weekly Rapamycin): 37.2%; reduction in geometric mean delta tumour volume compared with the vehicle treated control (A549a xenografts; 4 mg/kg once weekly Rapamycin): 69.5%; growth inhibitory effect reached (A549 cell line; A549, regardless of the presence of AZD6244): < 50%; growth inhibitory effect reached (NCI-H23 cell line; NCI-H23, regardless of the presence of AZD6244): < 50%; growth inhibitory effect reached (NCI-H460 cell line; NCI-H460, regardless of the presence of AZD6244): < 50%; growth inhibitory effect reached (NCI-H2291 cell line; NCI-H2291, regardless of the presence of AZD6244): < 50%
